Legend:
[1] = Molar enthalpy of transition or fusion; settings: Crystal; DSC
[2] = for molar entropy: 101.33 kPa; for Normal melting temperature: DTA

OC[C@@H](O)C(O)[C@H](O)CO [D-arabitol]
Settings | Molar enthalpy of transition or fusion [kcal/mol]
[1] | 9.46

[2]
Settings | molar entropy [J/K/mol]
1 K, Crystal, relaxation calorimetry | 0.0005801
2 K, Crystal, relaxation calorimetry | 0.002268
3 K, Crystal, relaxation calorimetry | 0.006257
4 K, Crystal, relaxation calorimetry | 0.01391
5 K, Crystal, relaxation calorimetry | 0.02686
6 K, Crystal, relaxation calorimetry | 0.04705
7 K, Crystal, relaxation calorimetry | 0.07698
8 K, Crystal, relaxation calorimetry | 0.1198
9 K, Crystal, relaxation calorimetry | 0.179
10 K, Crystal, relaxation calorimetry | 0.2576
15 K, Crystal, relaxation calorimetry | 1.012
20 K, Crystal, relaxation calorimetry | 2.431
25 K, Crystal, relaxation calorimetry | 4.457
30 K, Crystal, relaxation calorimetry | 6.97
35 K, Crystal, relaxation calorimetry | 9.854
40 K, Crystal, relaxation calorimetry | 13.02
45 K, Crystal, relaxation calorimetry | 16.41
50 K, Crystal, relaxation calorimetry | 19.95
55 K, Crystal, relaxation calorimetry | 23.61
60 K, Crystal, relaxation calorimetry | 27.36
65 K, Crystal, relaxation calorimetry | 31.16
70 K, Crystal, relaxation calorimetry | 35.01
75 K, Crystal, relaxation calorimetry | 38.9
80 K, Crystal, relaxation calorimetry | 42.79
85 K, Crystal, relaxation calorimetry | 46.7
90 K, Crystal, relaxation calorimetry | 50.61
95 K, Crystal, relaxation calorimetry | 54.52
100 K, Crystal, relaxation calorimetry | 58.42
110 K, Crystal, relaxation calorimetry | 66.18
120 K, Crystal, relaxation calorimetry | 73.87
130 K, Crystal, relaxation calorimetry | 81.48
140 K, Crystal, relaxation calorimetry | 89.01
150 K, Crystal, relaxation calorimetry | 96.45
160 K, Crystal, relaxation calorimetry | 103.81
170 K, Crystal, relaxation calorimetry | 111.08
180 K, Crystal, relaxation calorimetry | 118.28
190 K, Crystal, relaxation calorimetry | 125.41
200 K, Crystal, relaxation calorimetry | 132.48
210 K, Crystal, relaxation calorimetry | 139.49
220 K, Crystal, relaxation calorimetry | 146.44
230 K, Crystal, relaxation calorimetry | 153.36
240 K, Crystal, relaxation calorimetry | 160.23
250 K, Crystal, relaxation calorimetry | 167.08
260 K, Crystal, relaxation calorimetry | 173.89
270 K, Crystal, relaxation calorimetry | 180.69
273.15 K, Crystal, relaxation calorimetry | 182.82
280 K, Crystal, relaxation calorimetry | 187.46
290 K, Crystal, relaxation calorimetry | 194.23
298.15 K, Crystal, relaxation calorimetry | 199.73
300 K, Crystal, relaxation calorimetry | 200.98
305 K, Crystal, Small sample (50 mg) DSC | 204.36
310 K, Crystal, Small sample (50 mg) DSC | 207.75
315 K, Crystal, Small sample (50 mg) DSC | 211.16
320 K, Crystal, Small sample (50 mg) DSC | 214.58
325 K, Crystal, Small sample (50 mg) DSC | 218.03
330 K, Crystal, Small sample (50 mg) DSC | 221.5
335 K, Crystal, Small sample (50 mg) DSC | 224.99
340 K, Crystal, Small sample (50 mg) DSC | 228.51
345 K, Crystal, Small sample (50 mg) DSC | 232.07
350 K, Crystal, Small sample (50 mg) DSC | 235.68
355 K, Crystal, Small sample (50 mg) DSC | 239.39
360 K, Crystal, Small sample (50 mg) DSC | 243.37
365 K, Crystal, Small sample (50 mg) DSC | 248.05
390 K, Liquid, Small sample (50 mg) DSC | 369.2
395 K, Liquid, Small sample (50 mg) DSC | 374.96
400 K, Liquid, Small sample (50 mg) DSC | 380.58
405 K, Liquid, Small sample (50 mg) DSC | 386.13
410 K, Liquid, Small sample (50 mg) DSC | 391.63
415 K, Liquid, Small sample (50 mg) DSC | 397.09
420 K, Liquid, Small sample (50 mg) DSC | 402.53

Settings | Normal melting temperature [°C]
[2], Crystal | 99.23

OC[C@@H](O)[C@@H](O)CO [meso-1,2,3,4-butanetetrol]
Settings | Molar enthalpy of transition or fusion [kcal/mol]
[1] | 10.7

[2]
Settings | molar entropy [J/K/mol]
1 K, Crystal, relaxation calorimetry | 0.0005942
2 K, Crystal, relaxation calorimetry | 0.002515
3 K, Crystal, relaxation calorimetry | 0.007205
4 K, Crystal, relaxation calorimetry | 0.01633
5 K, Crystal, relaxation calorimetry | 0.03184
6 K, Crystal, relaxation calorimetry | 0.05604
7 K, Crystal, relaxation calorimetry | 0.09153
8 K, Crystal, relaxation calorimetry | 0.1411
9 K, Crystal, relaxation calorimetry | 0.2079
10 K, Crystal, relaxation calorimetry | 0.2944
15 K, Crystal, relaxation calorimetry | 1.077
20 K, Crystal, relaxation calorimetry | 2.466
25 K, Crystal, relaxation calorimetry | 4.373
30 K, Crystal, relaxation calorimetry | 6.67
35 K, Crystal, relaxation calorimetry | 9.244
40 K, Crystal, relaxation calorimetry | 12.02
45 K, Crystal, relaxation calorimetry | 14.94
50 K, Crystal, relaxation calorimetry | 17.96
55 K, Crystal, relaxation calorimetry | 21.05
60 K, Crystal, relaxation calorimetry | 24.19
65 K, Crystal, relaxation calorimetry | 27.37
70 K, Crystal, relaxation calorimetry | 30.57
75 K, Crystal, relaxation calorimetry | 33.79
80 K, Crystal, relaxation calorimetry | 37.01
85 K, Crystal, relaxation calorimetry | 40.23
90 K, Crystal, relaxation calorimetry | 43.44
95 K, Crystal, relaxation calorimetry | 46.65
100 K, Crystal, relaxation calorimetry | 49.83
110 K, Crystal, relaxation calorimetry | 56.17
120 K, Crystal, relaxation calorimetry | 62.43
130 K, Crystal, relaxation calorimetry | 68.62
140 K, Crystal, relaxation calorimetry | 74.74
150 K, Crystal, relaxation calorimetry | 80.8
160 K, Crystal, relaxation calorimetry | 86.79
170 K, Crystal, relaxation calorimetry | 92.72
180 K, Crystal, relaxation calorimetry | 98.61
190 K, Crystal, relaxation calorimetry | 104.44
200 K, Crystal, relaxation calorimetry | 110.22
210 K, Crystal, relaxation calorimetry | 115.97
220 K, Crystal, relaxation calorimetry | 121.68
230 K, Crystal, relaxation calorimetry | 127.36
240 K, Crystal, relaxation calorimetry | 133.01
250 K, Crystal, relaxation calorimetry | 138.64
260 K, Crystal, relaxation calorimetry | 144.24
270 K, Crystal, relaxation calorimetry | 149.82
273.15 K, Crystal, relaxation calorimetry | 151.57
280 K, Crystal, relaxation calorimetry | 155.38
290 K, Crystal, relaxation calorimetry | 160.92
298.15 K, Crystal, relaxation calorimetry | 165.43
300 K, Crystal, relaxation calorimetry | 166.46
305 K, Crystal, Small sample (50 mg) DSC | 169.22
310 K, Crystal, Small sample (50 mg) DSC | 172
315 K, Crystal, Small sample (50 mg) DSC | 174.78
320 K, Crystal, Small sample (50 mg) DSC | 177.57
325 K, Crystal, Small sample (50 mg) DSC | 180.36
330 K, Crystal, Small sample (50 mg) DSC | 183.15
335 K, Crystal, Small sample (50 mg) DSC | 185.94
340 K, Crystal, Small sample (50 mg) DSC | 188.74
345 K, Crystal, Small sample (50 mg) DSC | 191.53
350 K, Crystal, Small sample (50 mg) DSC | 194.32
355 K, Crystal, Small sample (50 mg) DSC | 197.11
360 K, Crystal, Small sample (50 mg) DSC | 199.9
365 K, Crystal, Small sample (50 mg) DSC | 202.7
370 K, Crystal, Small sample (50 mg) DSC | 205.49
375 K, Crystal, Small sample (50 mg) DSC | 208.29
380 K, Crystal, Small sample (50 mg) DSC | 211.1
385 K, Crystal, Small sample (50 mg) DSC | 213.99
390 K, Crystal, Small sample (50 mg) DSC | 217.51
405 K, Liquid, Small sample (50 mg) DSC | 333.59
410 K, Liquid, Small sample (50 mg) DSC | 338.24
415 K, Liquid, Small sample (50 mg) DSC | 342.55
420 K, Liquid, Small sample (50 mg) DSC | 346.8
425 K, Liquid, Small sample (50 mg) DSC | 351
430 K, Liquid, Small sample (50 mg) DSC | 355.15
435 K, Liquid, Small sample (50 mg) DSC | 359.26

Settings | Normal melting temperature [°C]
[2], Crystal | 121.67
